Values joined by “and” are separate entries in the source; they are usually repeats but may differ in a detail not shown here. Equal entries are not always repeated. Where two headings read alike, the source gives them in different places.

In series [1] the test system is HG-3 and PGA-1 cell lines. Description: alamarBlue cell viability assay, mean of both CLL cell lines. The note with it: Homo sapiens, CLL cell; mean of HG-3 and PGA-1. It counts as cell-based, human. Background: Alamar Blue is a resazurin reagent that responds to reducing activity.
Series [2] has as its system HG-3 cells. In words: alamarBlue cell viability assay. The note with it: Homo sapiens, HG-3, 24 h; for IC50: read-out: HG-3 IC50; for viability at 10 µM: read-out: cell viability, HG-3, 10 µM, 24 h, vehicle = 100%; for viability at 1 µM: read-out: cell viability, HG-3, 1 µM, 24 h, vehicle = 100%.
Another series relates to PGA-1 cells. In words: alamarBlue cell viability assay. The conditions noted are these: Homo sapiens, 24 h; for IC50: read-out: PGA-1 IC50; for viability at 10 µM: read-out: cell viability.
Series [3] can be described thus: HPLC stability study in phosphate buffers. It counts as physicochemical. The note with it: for recovery at 24 h: over the pH range studied (pH 4, 7.4 and 9); for remaining at 24 h, 14.6 µg/mL / half-life at 14.6 µg/mL: phosphate buffer; for remaining at 24 h, 14.6 µg/mL / % remaining 24 h pH 4 / % remaining 24 h pH 7.4 / % remaining 24 h pH 9: HPLC. Here is the method:
A preliminary stability study was carried out on selected chalcones, maleic anhydride and maleimide adducts at acidic, neutral and basic conditions (pH 4, 7.4 and 9) using HPLC to determine suitability for further preclinical investigations. […] A possible degradation route for the maleimide 23n could be through the hydrolysis of the cyclic imide of the maleimide ring, leading to the resultant amic acid product.
All samples were analyzed using acetonitrile–water (80:20%, 70:30%, 60:40% isocratic) as the mobile phase over 10 min and a flow rate of 1 mL/min. Stock solutions were prepared by dissolving 5 mg of compounds in a mobile phase ([(acetonitrile (80%): water (20%)], 10 mL). Anhydride 22h was not detected at its retention time of 5.2 min at pH 9.0. The data presented represent the results of single experiments.
The HPLC stability studies for compounds 21a, 21i, 22h, 23a, 23g, 23n, 24a, 24h, 26a and 26n were performed using a Symmetry® column (C18, 5 µm, 4.6 × 150 mm), a Waters 2487 Dual Wavelength Absorbance detector, and an HPLC pump: Waters 1525 binary and Autosampler; Waters 717 plus (Waters Corporation, Milford, MA, USA), mobile phase [(acetonitrile (80%) and water (20%)] with a typical run time of 10 min and a flow rate of 1 mL/min with detection at 254 nm. The selected compounds 21a, 21i, 22h, 23a, 23g, 23n, 24a, 24h, 26a and 26n (5 mg) in the mobile phase (10 mL) provided the stock solution for the analysis. The phosphate buffers were prepared at pH values of 4, 7.4 and 9, as described in the British Pharmacopoeia monograph 2019. The stock solution (30 µL) was added to the appropriate buffer (1 mL) and retained at 37 °C. Samples were then analyzed over the following 24-h period at selected time intervals (t = 0 min, 5 min, 30 min, 60 min, 90 min, 120 min and 24 h).

Series [4] has as its system HG-3 cells.
The mark [5] stands for this setting: pH 4 buffer, 37 °C, read-out: % remaining 24 h pH 4.
Setting [6] is: pH 4 buffer, 37 °C, read-out: Half-life pH 4 (converted).
The mark [7] stands for this setting: pH 7.4 buffer, 37 °C, read-out: % remaining 24 h pH 7.4.
The mark [8] stands for this setting: pH 7.4 buffer, 37 °C, read-out: Half-life pH 7.4 (converted).
[9] abbreviates: pH 9 buffer, 37 °C, read-out: % remaining 24 h pH 9.
[10] abbreviates: pH 9 buffer, 37 °C, read-out: Half-life pH 9 (converted).

What is called IC50 is the concentration needed to halve the response being measured. In turn, `COc1c2ccccc2c(/C=C/[N+](=O)[O-])c2ccccc12` [Compound 18b, reference compound] had an IC50 in series [1] of 730 nM.
For orientation: viability means the share of living cells, or the viability signal relative to a control. As for `O=C1C2C3c4ccccc4C(C=C[N+](=O)[O-])(c4ccccc43)C2C(=O)N1c1ccc(Cl)cc1` (centres unmarked) [Compound 20b], the IC50 came out at 850 nM in the series on HG-3 cells [2], 660 nM in the series with PGA-1 cells and 760 nM in series [1]. For the same molecule, the viability at 10 µM in the series with HG-3 cells [2] was 8%; with PGA-1 cells, 3%.
On the same counts, the results for `O=C(c1ccccc1)c1ccc(N2C(=O)C3C4c5ccccc5C(/C=C/[N+](=O)[O-])(c5ccccc54)C3C2=O)cc1` (centres unmarked) [Compound 20c] are 710 nM, 880 nM, 800 nM, 11% and 4%.
On the same counts, the results for `O=C1NC(=O)C2C1C1c3ccccc3C2(C=C[N+](=O)[O-])c2ccccc21` (centres unmarked) [Compound 20d] are 780 nM, 760 nM, 770 nM, 14 to 43% and 17%.
In the case of `N#CC1CC2c3ccccc3C1(/C=C/[N+](=O)[O-])c1ccccc12` (centres unmarked) [Compound 20e], the IC50 with HG-3 cells [2] came out at 1600 nM; in the series with PGA-1 cells, 1100 nM; in series [1], 1400 nM. The viability at 10 µM in the series on HG-3 cells [2] is 14 to 43%; in the series with PGA-1 cells, 3%.
Take `O=C1C2C(C(=O)N1c1ccccc1)C1(/C=C/[N+](=O)[O-])c3ccccc3C2(Cl)c2ccccc21` (centres unmarked) [Compound 20g]: the viability at 10 µM in the series on HG-3 cells [2] stood at 2%; in the series on PGA-1 cells, 1%.
With `O=C1OC(=O)C2C1C1c3ccccc3C2(/C=C/[N+](=O)[O-])c2ccccc21` (centres unmarked) [Compound 20h], the viability at 10 µM with HG-3 cells [2] worked out at 31%; with PGA-1 cells it was 2%.
Broadly, the amount remaining is the share of the starting amount still present when the sample was taken. Usually half-life stands for the time in which the quantity being followed falls by half. For `O=C(/C=C/c1c2ccccc2cc2ccccc12)c1ccc(Br)cc1` [Compound 21a, (E)-3-(anthracen-9-yl)-1-(4-bromophenyl)prop-2-en-1-one], the “recovery at 24 h” value in series [3] was less than 50%. Further, the amount remaining at 24 h, 14.6 µg/mL is 46.3% in series [3] (setting [5]), 38.6% in series [3] (setting [7]) and 38.6% in series [3] (setting [9]). For the same molecule, the half-life at 14.6 µg/mL in series [3] (setting [6]) is 3.25 h; in series [3] (setting [8]), 2 h; in series [3] (setting [10]), 1.5 h.
On to `O=C(/C=C/c1c2ccccc2cc2ccccc12)c1ccc(Cl)cc1Cl` [Compound 21d, (E)-3-(anthracen-9-yl)-1-(2,4-dichlorophenyl)prop-2-en-1-one], for which, in the series with HG-3 cells [2], the viability at 1 µM lay within 50 to 61% and the viability at 10 µM was in the range of 37 to 54%. Also, the viability at 10 µM in the series on PGA-1 cells amounted to 50%.
Consider `COc1ccc(C(=O)/C=C/c2c3ccccc3cc3ccccc23)cc1OC` [Compound 21e, (E)-3-(Anthracen-9-yl)-1-(3,4-dimethoxyphenyl)prop-2-en-1-one], for which, in the series on HG-3 cells [2], the viability at 1 µM is 50 to 61% and the viability at 10 µM is 37 to 54%.
Consider `O=C(/C=C/c1c2ccccc2cc2ccccc12)c1ccc(F)cc1` [Compound 21h, (E)-3-(anthracen-9-yl)-1-(4-fluorophenyl)prop-2-en-1-one], for which, in the series with PGA-1 cells, the viability at 10 µM worked out at 70%.
For the molecule `COc1ccc(C(=O)/C=C/c2c3ccccc3cc3ccccc23)cc1` [Compound 21i, (E)-3-(anthracen-9-yl)-1-(4-methoxyphenyl)prop-2-en-1-one], the “recovery at 24 h” value in series [3] is less than 50%. Also, the share remaining at 24 h, 14.6 µg/mL in series [3] (setting [5]) was 27.9%; in series [3] (setting [7]), 26.6%; in series [3] (setting [9]) it was 42.1%. In addition, the half-life at 14.6 µg/mL in series [3] (setting [6]) was approximately 11.5 h; in series [3] (setting [8]), 3.85 h; in series [3] (setting [10]), approximately 11.5 h. In the series with PGA-1 cells, the viability at 10 µM worked out at 49%.
Take `O=C(/C=C/c1c2ccccc2cc2ccccc12)c1ccc(Cl)cc1` [Compound 21l, (E)-3-(anthracen-9-yl)-1-(4-chlorophenyl)prop-2-en-1-one]: the viability at 10 µM with PGA-1 cells is 70%.
On to `O=C(/C=C/c1c2ccccc2cc2ccccc12)c1ccccn1` [Compound 21n, (E)-3-(anthracen-9-yl)-1-(pyridin-2-yl)prop-2-en-1-one], for which, in the series with HG-3 cells [2], the viability at 1 µM is 50 to 61% and the viability at 10 µM is 37 to 54%. Also, in the series on PGA-1 cells, the viability at 10 µM was 47%.
For `O=C(/C=C/C12c3ccccc3C(c3ccccc31)C1C(=O)OC(=O)C12)c1ccc(F)cc1` (centres unmarked) [Compound 22h], the “recovery at 24 h” value in series [3] is given as less than 50%. Moreover, in series [3] (pH 4 buffer, 37 °C), the “Half-life pH 4” value turned out to be 2.1 h and the “% remaining 24 h pH 4” value is recorded as 0.81%. In series [3] (pH 7.4 buffer, 37 °C), the “Half-life pH 7.4” value amounted to 1 h and the “% remaining 24 h pH 7.4” value turned out to be 3.13%. For the same molecule, in series [3] (pH 9 buffer, 37 °C), the “% remaining 24 h pH 9” value is on record as “not detected”.
With `O=C(/C=C/C12c3ccccc3C(c3ccccc31)C1C(=O)N(c3ccccc3)C(=O)C12)c1ccc(Br)cc1` (centres unmarked) [Compound 24a], in series [3], the “recovery at 24 h” value is listed as less than 50%. Besides, the amount remaining at 24 h, 14.6 µg/mL in series [3] (setting [5]) is 48.4%; in series [3] (setting [7]), 45.2%; in series [3] (setting [9]), 33.6%. For the same molecule, the values for the half-life at 14.6 µg/mL in series [3] (setting [6]), in series [3] (setting [8]) and in series [3] (setting [10]) were 4.17 h, 23.5 h and 23.5 h, respectively. In addition, the viability at 10 µM in the series on HG-3 cells [2] came out at 14%; in the series on PGA-1 cells, 25%.
Regarding `O=C(/C=C/C12c3ccccc3C(c3ccccc31)C1C(=O)N(c3ccccc3)C(=O)C12)c1ccc(F)cc1` (centres unmarked) [Compound 24h], in series [3] (pH 4 buffer, 37 °C), the “Half-life pH 4” value is 14.8 h; the “% remaining 24 h pH 4” value was 25% and 24.97%. Also, in series [3] (pH 7.4 buffer, 37 °C), the “Half-life pH 7.4” value was more than 24 h; the “% remaining 24 h pH 7.4” value is 80% and 79.48%. For the same molecule, in series [3] (pH 9 buffer, 37 °C), the “Half-life pH 9” value is recorded as more than 24 h; the “% remaining 24 h pH 9” value is 81% and 80.99%.
A word on the cell viability: it is a per cent measure of how many cells are alive, often set against a control. The low end stands for more harm to the cells, the high end for less harm to the cells. Turning to `O=C(C=CC12c3ccccc3C(c3ccccc31)C1C(=O)N(c3ccccc3)C(=O)C12)c1ccccn1` (centres unmarked) [Compound 24n, 9-(E)-3-Oxo-3-(pyridin-2-yl)prop-1-en-1-yl)-13-phenyl-9,10-dihydro-9,10-[3,4]epipyrroloanthracene-12,14-dione], the cell viability in the series on HG-3 cells [4] (1 µM) was determined as 48%; in the series on HG-3 cells [4] (10 µM), 4%.
`O=C(C=CC12c3ccccc3C(c3ccccc31)C1C(=O)N(c3ccccc3)C(=O)C12)c1cccs1` (centres unmarked) [Compound 24q, 9-(E)-3-Oxo-3-(thiophen-2-yl)prop-1-en-1-yl)-13-phenyl-9,10-dihydro-9,10-[3,4]epipyrroloanthracene-12,14-dione] had a cell viability in the series on HG-3 cells [4] (10 µM) of 24%.
With `O=C(/C=C/C12c3ccccc3C(c3ccccc31)C1C(=O)N(c3ccc(Cl)cc3)C(=O)C12)c1ccc(F)cc1` (centres unmarked) [Compound 25h, (E)-13-(4-Chlorophenyl)-9-(3-(4-fluorophenyl)-3-oxoprop-1-en-1-yl)-9,10-dihydro-9,10[3,4]epipyrroloanthracene-12,14-dione], the cell viability in the series with HG-3 cells [4] (10 µM) amounted to 35%.
On the same count and under the same terms, in the case of `O=C(C=CC12c3ccccc3C(c3ccccc31)C1C(=O)N(c3ccc(Cl)cc3)C(=O)C12)c1cccs1` (centres unmarked) [Compound 25q, (E)-13-(4-Chlorophenyl)-9-(3-oxo-3-(thiophen-2-yl)prop-1-en-1-yl)-9,10-dihydro-9,10-[3,4]epipyrroloanthracene-12,14-dione] it was 47%.
On the same count and under the same terms, in the case of `O=C(c1ccccc1)c1ccc(N2C(=O)C3C4c5ccccc5C(/C=C/C(=O)c5cccs5)(c5ccccc54)C3C2=O)cc1` (centres unmarked) [Compound 26q, (E)-13-(4-Benzoylphenyl)-9-(3-oxo-3-(thiophen-2-yl)prop-1-en-1-yl)-9,10-dihydro-9,10-[3,4]epipyrroloanthracene-12,14-dione] it was 56%.
